Measurements as given in ChEMBL document CHEMBL1255475, “Mutant prevention concentrations of four carbapenems against gram-negative rods” (2010).

How the values were obtained:
Pseudomonas aeruginosa [1] = assay: Ratio of mutant prevention concentration to minimum Inhibitory concentration for Pseudomonas aeruginosa P319; assay type: functional
Pseudomonas aeruginosa [2] = assay: Ratio of mutant prevention concentration to minimum Inhibitory concentration for Pseudomonas aeruginosa P320; assay type: functional
Pseudomonas aeruginosa [3] = assay: Ratio of mutant prevention concentration to minimum Inhibitory concentration for Pseudomonas aeruginosa P352; assay type: functional
Pseudomonas aeruginosa [4] = assay: Ratio of mutant prevention concentration to minimum Inhibitory concentration for Pseudomonas aeruginosa P365; assay type: functional
Pseudomonas aeruginosa [5] = assay: Ratio of mutant prevention concentration to minimum Inhibitory concentration for Pseudomonas aeruginosa P340; assay type: functional
Pseudomonas aeruginosa [6] = assay: Ratio of mutant prevention concentration to minimum Inhibitory concentration for Pseudomonas aeruginosa P376; assay type: functional
Acinetobacter baumannii [7] = assay: Ratio of mutant prevention concentration to minimum Inhibitory concentration for Acinetobacter baumannii A850; assay type: functional
Acinetobacter baumannii [8] = assay: Ratio of mutant prevention concentration to minimum Inhibitory concentration for Acinetobacter baumannii A864; assay type: functional
Acinetobacter baumannii [9] = assay: Ratio of mutant prevention concentration to minimum Inhibitory concentration for Acinetobacter baumannii A851; assay type: functional
Acinetobacter baumannii [10] = assay: Ratio of mutant prevention concentration to minimum Inhibitory concentration for Acinetobacter baumannii A911; assay type: functional
Acinetobacter baumannii [11] = assay: Ratio of mutant prevention concentration to minimum Inhibitory concentration for Acinetobacter baumannii A912; assay type: functional
Acinetobacter baumannii [12] = assay: Ratio of mutant prevention concentration to minimum Inhibitory concentration for Acinetobacter baumannii A849; assay type: functional
Acinetobacter baumannii [13] = assay: Ratio of mutant prevention concentration to minimum Inhibitory concentration for Acinetobacter baumannii A896; assay type: functional
Acinetobacter baumannii [14] = assay: Ratio of mutant prevention concentration to minimum Inhibitory concentration for Acinetobacter baumannii A928; assay type: functional
Acinetobacter baumannii [15] = assay: Ratio of mutant prevention concentration to minimum Inhibitory concentration for Acinetobacter baumannii A898; assay type: functional
Acinetobacter baumannii [16] = assay: Ratio of mutant prevention concentration to minimum Inhibitory concentration for Acinetobacter baumannii A897; assay type: functional
Acinetobacter baumannii [17] = assay: Ratio of mutant prevention concentration to minimum Inhibitory concentration for Acinetobacter baumannii A929; assay type: functional
Acinetobacter baumannii [18] = assay: Ratio of mutant prevention concentration to minimum Inhibitory concentration for Acinetobacter baumannii A891; assay type: functional
Acinetobacter baumannii [19] = assay: Ratio of mutant prevention concentration to minimum Inhibitory concentration for Acinetobacter baumannii A903; assay type: functional
Acinetobacter baumannii [20] = assay: Antibacterial activity against Acinetobacter baumannii A931 after 24 hrs by agar dilution method; assay type: functional; conditions: A931, 24 h
Acinetobacter baumannii [21] = assay: Antibacterial activity against Acinetobacter baumannii A897 after 24 hrs by agar dilution method; assay type: functional; conditions: A897, 24 h
Acinetobacter baumannii [22] = assay: Antibacterial activity against Acinetobacter baumannii A929 after 24 hrs by agar dilution method; assay type: functional; conditions: A929, 24 h
Acinetobacter baumannii [23] = assay: Antibacterial activity against Acinetobacter baumannii A885 after 24 hrs by agar dilution method; assay type: functional; conditions: A885, 24 h
Escherichia coli [24] = assay: Antibacterial activity against beta-lactamase-negative Escherichia coli E344 after 24 hrs by agar dilution method; conditions: E344, 24 h
Escherichia coli [25] = assay: Antibacterial activity against beta-lactamase-negative Escherichia coli E345 after 24 hrs by agar dilution method; conditions: E345, 24 h
Escherichia coli [26] = assay: Antibacterial activity against beta-lactamase-positive ESBL-positive Escherichia coli E458 after 24 hrs by agar dilution method; conditions: E458, 24 h
Escherichia coli [27] = assay: Antibacterial activity against beta-lactamase-positive ESBL-negative Escherichia coli E415 after 24 hrs by agar dilution method; conditions: E415, 24 h
Escherichia coli [28] = assay: Antibacterial activity against beta-lactamase-positive ESBL-positive Escherichia coli E450 after 24 hrs by agar dilution method; conditions: E450, 24 h
Escherichia coli [29] = assay: Antibacterial activity against beta-lactamase-positive ESBL-positive Escherichia coli E452 after 24 hrs by agar dilution method; conditions: E452, 24 h
Escherichia coli [30] = assay: Antibacterial activity against beta-lactamase-positive ESBL-positive Escherichia coli E460 after 24 hrs by agar dilution method; conditions: E460, 24 h
Escherichia coli [31] = assay: Antibacterial activity against beta-lactamase-positive ESBL-positive Escherichia coli E465 after 24 hrs by agar dilution method; conditions: E465, 24 h
Escherichia coli [32] = assay: Antibacterial activity against beta-lactamase-positive ESBL-negative Escherichia coli E483 after 24 hrs by agar dilution method; conditions: E483, 24 h
Klebsiella pneumoniae [33] = assay: Antibacterial activity against beta-lactamase-negative Klebsiella pneumoniae E357 after 24 hrs by agar dilution method; assay type: functional; conditions: E357, 24 h
Klebsiella pneumoniae [34] = assay: Antibacterial activity against beta-lactamase-negative Klebsiella pneumoniae E358 after 24 hrs by agar dilution method; assay type: functional; conditions: E358, 24 h
Klebsiella pneumoniae [35] = assay: Antibacterial activity against beta-lactamase-negative Klebsiella pneumoniae E419 after 24 hrs by agar dilution method; assay type: functional; conditions: E419, 24 h
Klebsiella pneumoniae [36] = assay: Antibacterial activity against beta-lactamase-positive ESBL-negative Klebsiella pneumoniae E480 after 24 hrs by agar dilution method; assay type: functional; conditions: E480, 24 h
Klebsiella pneumoniae [37] = assay: Antibacterial activity against beta-lactamase-positive ESBL-negative Klebsiella pneumoniae E509 after 24 hrs by agar dilution method; assay type: functional; conditions: E509, 24 h
Klebsiella pneumoniae [38] = assay: Antibacterial activity against beta-lactamase-positive ESBL-negative Klebsiella pneumoniae E472 after 24 hrs by agar dilution method; assay type: functional; conditions: E472, 24 h
Klebsiella pneumoniae [39] = assay: Antibacterial activity against beta-lactamase-positive ESBL-negative Klebsiella pneumoniae E479 after 24 hrs by agar dilution method; assay type: functional; conditions: E479, 24 h
Klebsiella pneumoniae [40] = assay: Antibacterial activity against beta-lactamase-positive ESBL-negative Klebsiella pneumoniae E473 after 24 hrs by agar dilution method; assay type: functional; conditions: E473, 24 h
Klebsiella pneumoniae [41] = assay: Antibacterial activity against beta-lactamase-positive ESBL-negative Klebsiella pneumoniae E477 after 24 hrs by agar dilution method; assay type: functional; conditions: E477, 24 h
Klebsiella pneumoniae [42] = assay: Antibacterial activity against beta-lactamase-positive ESBL-positive Klebsiella pneumoniae E478 after 24 hrs by agar dilution method; assay type: functional; conditions: E478, 24 h
Klebsiella pneumoniae [43] = assay: Antibacterial activity against beta-lactamase-positive ESBL-positive Klebsiella pneumoniae E457 after 24 hrs by agar dilution method; assay type: functional; conditions: E457, 24 h
Pseudomonas aeruginosa [44] = assay: Antibacterial activity against Pseudomonas aeruginosa P332 after 24 hrs by agar dilution method; conditions: P332, 24 h
Pseudomonas aeruginosa [45] = assay: Antibacterial activity against Pseudomonas aeruginosa P373 after 24 hrs by agar dilution method; conditions: P373, 24 h
Pseudomonas aeruginosa [46] = assay: Antibacterial activity against Pseudomonas aeruginosa P320 after 24 hrs by agar dilution method; conditions: P320, 24 h
Pseudomonas aeruginosa [47] = assay: Antibacterial activity against Pseudomonas aeruginosa P338 after 24 hrs by agar dilution method; conditions: P338, 24 h
Pseudomonas aeruginosa [48] = assay: Antibacterial activity against Pseudomonas aeruginosa P328 after 24 hrs by agar dilution method; assay type: functional; conditions: P328, 24 h
Pseudomonas aeruginosa [49] = assay: Antibacterial activity against Pseudomonas aeruginosa P349 after 24 hrs by agar dilution method; conditions: P349, 24 h
Pseudomonas aeruginosa [50] = assay: Antibacterial activity against Pseudomonas aeruginosa P376 after 24 hrs by agar dilution method; conditions: P376, 24 h
Acinetobacter baumannii [51] = assay: Antibacterial activity against Acinetobacter baumannii A850 after 24 hrs by agar dilution method; assay type: functional; conditions: A850, 24 h
Acinetobacter baumannii [52] = assay: Antibacterial activity against Acinetobacter baumannii A864 after 24 hrs by agar dilution method; assay type: functional; conditions: A864, 24 h
Acinetobacter baumannii [53] = assay: Antibacterial activity against Acinetobacter baumannii A865 after 24 hrs by agar dilution method; assay type: functional; conditions: A865, 24 h
Acinetobacter baumannii [54] = assay: Antibacterial activity against Acinetobacter baumannii A911 after 24 hrs by agar dilution method; assay type: functional; conditions: A911, 24 h

C[C@@H](O)[C@H]1C(=O)N2C(C(=O)O)=C(S[C@@H]3CN[C@H](CNS(N)(=O)=O)C3)[C@H](C)[C@H]12 [DORIPENEM]
16: Ratio (Pseudomonas aeruginosa [4])
4: Ratio (Pseudomonas aeruginosa [1]) | Ratio (Acinetobacter baumannii [9]) | Ratio (Acinetobacter baumannii [12]) | Ratio (Acinetobacter baumannii [18]) | Ratio (Acinetobacter baumannii [19])
8: Ratio (Pseudomonas aeruginosa [5]) | Ratio (Acinetobacter baumannii [8])
>16: Ratio (Pseudomonas aeruginosa [6])
2: Ratio (Pseudomonas aeruginosa [3]) | Ratio (Acinetobacter baumannii [7]) | Ratio (Acinetobacter baumannii [10]) | Ratio (Acinetobacter baumannii [11]) | Ratio (Acinetobacter baumannii [13]) | Ratio (Acinetobacter baumannii [14]) | Ratio (Acinetobacter baumannii [15]) | Ratio (Acinetobacter baumannii [16]) | Ratio (Acinetobacter baumannii [17])
>8: Ratio (Pseudomonas aeruginosa [2])

C[C@@H](O)[C@H]1C(=O)N2C(C(=O)O)=C(SCCNC=N)C[C@H]12 [IMIPENEM ANHYDROUS]
2 µg/mL: MIC (Acinetobacter baumannii [23]) | MIC (Klebsiella pneumoniae [36]) | MIC (Pseudomonas aeruginosa [45]) | MIC (Pseudomonas aeruginosa [46]) | MIC (Pseudomonas aeruginosa [47]) | MIC (Pseudomonas aeruginosa [49]) | MIC (Acinetobacter baumannii [54])
0.5 µg/mL: MIC (Acinetobacter baumannii [20]) | MIC (Acinetobacter baumannii [21]) | MIC (Acinetobacter baumannii [22]) | MIC (Klebsiella pneumoniae [35])
0.25 µg/mL: MIC (Escherichia coli [25]) | MIC (Escherichia coli [30]) | MIC (Escherichia coli [31]) | MIC (Klebsiella pneumoniae [33]) | MIC (Klebsiella pneumoniae [34]) | MIC (Klebsiella pneumoniae [43])
4 µg/mL: MIC (Klebsiella pneumoniae [40]) | MIC (Klebsiella pneumoniae [41]) | MIC (Klebsiella pneumoniae [42]) | MIC (Pseudomonas aeruginosa [50]) | MIC (Acinetobacter baumannii [51])
0.125 µg/mL: MIC (Escherichia coli [24]) | MIC (Escherichia coli [26]) | MIC (Escherichia coli [27]) | MIC (Escherichia coli [28]) | MIC (Escherichia coli [29])
8 µg/mL: MIC (Klebsiella pneumoniae [37]) | MIC (Klebsiella pneumoniae [38]) | MIC (Klebsiella pneumoniae [39]) | MIC (Pseudomonas aeruginosa [48]) | MIC (Acinetobacter baumannii [52]) | MIC (Acinetobacter baumannii [53])
1 µg/mL: MIC (Escherichia coli [32]) | MIC (Pseudomonas aeruginosa [44])
